Experimental data reported in publication PMC7764601 (Molecules, 2020).
Read-outs that look alike come from different tables or passages of the source. Marks after values point to notes of the source that are not given here.

What was measured:
[1] = test system: mice; experiment: “Writhing” test in mice (phenylbenzoquinone); format: in vivo; details: for Mean no. of writhing ± SEM: i.p.
Procedure: (§1) The experiments were carried out on male albino Swiss mice (body weight 18–26 g). All of the animals were housed at constant humidity (60%) and temperature (25 °C) and kept on a 12 h light/dark cycle. Animals were fed a standard pellet diet with free access to tap water. All procedures were conducted according to Animal Care and Use Committee guidelines, and approved by the Ethical Committee of Jagiellonian University, Kraków.
(§2) Control and experimental groups consisted of 6–8 animals each. The investigated compounds were administered intraperitoneally as a suspension in 0.5% methylcellulose in a constant volume of 10 mL/kg.
(§3) The statistical significance was calculated using a Student’s t-test. The ED50 values and their confidence limits were calculated according to the method of Litchfield and Wilcoxon.
(§4) Pain reactivity was measured in two tests: “hot plate” test (according to the method of Eddy and Leimbach) and “writhing” test in mice (according to Hendershot and Forsaith).
Then, after 25 min, the irritant (phenylbenzoquinone, 0.02% solution, ethanol-water, 5:95) was also administered intraperitoneally in a constant volume of 0.25 mL. Five min after the application of the irritant,a 10 min long period of observation started, in which the number of writhing episodes was counted.
The analgesic effect of individual doses was expressed in percent:(1) % Analgesic effect=100−∑ of writing incidents in experimental group/∑ of writhing incidents in control group×100

[2] = test system: mice; experiment: “Hot plate” test in mice; format: in vivo; details: for Time of Reaction to Pain Stimulus (s) ± SEM: hot plate, mice
Procedure: as §1, §2, §3, §4
Animals were placed individually on the metal plate, heated to 55 ± 1 °C. The latency time (s) to the pain reaction (licking of the hind paws or jumping) was recorded by a stop-watch. A cutoff time of 45 s was used to prevent tissue damage.

[3] = test system: mice; details: compounds obtained previously (series 1 and 2); cited from earlier work
[4] = test system: mice; set-up: method as in PMID 11234340, PMID 12484538, PMID 15652370; details: cited from earlier work; for % Inh. of locomotor activity: series 1; for ED50, influence on the locomotor activity: imides described previously (series 1)
[5] = test system: mice; set-up: method as in PMID 11234340, PMID 12484538, PMID 15652370; details: series 1, cited from earlier work
[6] = Mus musculus, ip, 0.5 h, read-out: Prolonged Time (%)

## CC(=O)Oc1ccccc1C(=O)O [ASA, Acetylicacid, reference compound]
[1]; Mus musculus, ip, confidence limits in parentheses, read-out: ED50 (mg/kg) ± SEM, writhing test
  ED50: 39.1 mg/kg
[1]; dose 30 mg/kg
  Mean no. of writhing ± SEM: 11.2 ± 2.1
[1]; dose 50 mg/kg
  Mean no. of writhing ± SEM: 8.5 ± 1.3
[1]; dose 100 mg/kg
  Mean no. of writhing ± SEM: 3.2 ± 1.1
[2]; [6]
  change in vivo at 100 mg/kg: 11.7%
  change in vivo at 200 mg/kg: 35.2%
  change in vivo at 400 mg/kg: 116%
[2]; Mus musculus, read-out: ED50, hot plate test
  ED50: 267 mg/kg
[2]; dose 100 mg/kg
  Time of Reaction to Pain Stimulus (s) ± SEM: 16.2 ± 4.9 s
[2]; dose 200 mg/kg
  Time of Reaction to Pain Stimulus (s) ± SEM: 19.6 ± 4.1 s
[2]; dose 400 mg/kg
  Time of Reaction to Pain Stimulus (s) ± SEM: 31.3 ± 1.2 s

## COc1nc(C)cc2c1C(=O)N(CCCN1CCN(c3ccccc3)CC1)C2=O [Compound 1H]
[3]
  ED50, writhing test: 1.03 mg/kg
[4]; dose 12.5 mg/kg
  % Inh. of locomotor activity: 47.67%
[4]; dose 25 mg/kg
  % Inh. of locomotor activity: 53.84%
[4]; dose 50 mg/kg
  % Inh. of locomotor activity: 66.55%
[4]
  ED50, influence on the locomotor activity: 15.17 mg/kg
[5]; dose 25 mg/kg
  Thiopental Anesthesia % Prolong.: 118%
[5]; dose 50 mg/kg
  Thiopental Anesthesia % Prolong.: 194%

## COc1nc(C)cc2c1C(=O)N(CN1CCN(c3ccccc3)CC1)C2=O [Compound 1K]
[3]
  ED50, writhing test: 2.55 mg/kg
[4]; dose 2.25 mg/kg
  % Inh. of locomotor activity: 49.23%
[4]; dose 4.5 mg/kg
  % Inh. of locomotor activity: 61.77%
[4]
  ED50, influence on the locomotor activity: 2.28 mg/kg
[5]; dose 2.25 mg/kg
  Thiopental Anesthesia % Prolong.: 134.1%
[5]; dose 4.5 mg/kg
  Thiopental Anesthesia % Prolong.: 199.1%

## COc1ccccc1N1CCN(CN2C(=O)c3cc(C)nc(OC)c3C2=O)CC1 [Compound 1L]
[3]
  ED50, writhing test: 6.53 mg/kg
[4]; dose 12.5 mg/kg
  % Inh. of locomotor activity: 37.81%
[4]; dose 25 mg/kg
  % Inh. of locomotor activity: 40.84%
[4]; dose 50 mg/kg
  % Inh. of locomotor activity: 68.25%
[4]
  ED50, influence on the locomotor activity: 25.2 mg/kg
[5]; dose 12.5 mg/kg
  Thiopental Anesthesia % Prolong.: 111.6%
[5]; dose 25 mg/kg
  Thiopental Anesthesia % Prolong.: 133.2%
[5]; dose 50 mg/kg
  Thiopental Anesthesia % Prolong.: 184.3%

## COc1nc(C)cc2c1C(=O)N(CCCCN1CCc3ccccc3C1)C2=O [Compound 1N]
[3]
  ED50, writhing test: 0.72 mg/kg
[4]; dose 46 mg/kg
  % Inh. of locomotor activity: 87.48 * %
[5]; dose 23 mg/kg
  Thiopental Anesthesia % Prolong.: 100.0%
[5]; dose 46 mg/kg
  Thiopental Anesthesia % Prolong.: 286.5%

## COc1nc(C)cc2c1C(=O)N(CCCCN1CCN(c3ccccc3)CC1)C2=O [Compound 1P]
[3]
  ED50, writhing test: 4.5 mg/kg
[4]; dose 50 mg/kg
  % Inh. of locomotor activity: 67.14%
[4]; dose 100 mg/kg
  % Inh. of locomotor activity: 86.10%
[5]; dose 50 mg/kg
  Thiopental Anesthesia % Prolong.: 140.25%
[5]; dose 100 mg/kg
  Thiopental Anesthesia % Prolong.: 242.13%
